Assay results: patent publication US20040241706A1, “Highly specific modulators of GTPases for target validation” (IRM, LLC, priority 2002, published 2004)
Numbering of substitutions follows the chain as printed.

Key:
mutant Ras (19A-116A) = target: T1, mutant Ras (19A-116A) (Homo sapiens, UniProt P01112, L19A/N116A); test: Ras inhibitor / guanine nucleotide exchange assay with 3H-GDP, double mutant L19A-N116A; type: binding; settings: for IC50: mutant (19A-116A) Ras, FIG. 34, read-out: IC50 (concentration at which 50% inhibition of GTP binding is observed); for displacement of radioactive GDP from the mutant GTPase: remaining radioactivity count
T1 construct: made in house; host or cells: E. coli BL21-Gold, pGEX vector
Text: (§1) One exemplary assay which can be used are Ras “inhibition” or “guanine nucleotide exchange” assays, as schematically illustrated in FIG. 8, and described in detail in the Examples hereinbelow. The assay detects inhibition of wild-type and mutant Ras proteins by using ^3H-labelled GDP and cold (non-tritiated) synthetic Ras inhibitors.
FIG. 11 graphically illustrates the inhibition of double mutant L19A-N116A (SEQ ID No. 11) by various C-6 substituted GTP moieties (compounds 39 through 42, presented as a-d in the figure), as compared to the negative control (nothing added to displace the radiolabeled GDP), positive control (cold GDP), and background count (no GTPase enzyme added).
The GTPase modulators of the present invention were screened against wild-type and/or mutant GTPases for their effectiveness as GTPase inhibitors. Ras inhibitor assays were performed to test the activity of the synthesized modulators against various wild-type and/or mutant GTPases of interest, and/or to compare the different modulators based upon the relative observed level of inhibition.
For example, purified mutant Ras (19A-116A) or wild type H-Ras protein (0.5 to 20 μg) was incubated in 40 μL of GTP exchange buffer (50 mM Tris-HCl pH 7.5, 50 mM NaCl, 5 mM EDTA, 1 mM DTT, 1 mg/mL BSA) containing either DMSO, GTP (100 μM) or a modulator (100 μM) for 30 min at 25° C. This pre-incubation was followed by the additions of 2 μCi ^3H-GDP (NEN, #NET966) and, 10 min later, 25 mM MgCl2. After another 5 min of incubation, the reaction mixture was applied to a nitrocellulose filter (Millipore, #HAWP02500) pre-wetted with wash buffer (50 mM Tris-HCl pH 7.5, 10 mM MgCl2), the filter was then washed using 10 mL of wash buffer. Filters were dried and the bound radioactivity was measured by scintillation counting (Beckman, #LS6500).
Cold GDP was used as a positive control. Since the positive control naturally replaces the radioactive GDP in both the wild-type and mutant GTPase proteins, significant drops in radiolabeling are observed. Water was used as a negative control. All of the measurements are in comparison to a background radioactivity count, such that the level of inhibition for a given compound was determined by the number of counts in comparison to the control. Thus, a high radioactivity count is indicative of a high level of binding between the mutant GTPase and the radioactive GDP.

single mutant N116G Ras = target: T2, single mutant N116G Ras (Homo sapiens, UniProt P01112, N116G); test: Ras inhibitor / guanine nucleotide exchange assay with 3H-GDP, single mutant N116G; type: binding; settings: FIG. 12 panel B
T2 construct: made in house; host or cells: E. coli BL21-Gold, pGEX vector
Text: as §1
FIG. 12 provides the inhibitor assay results for compounds 43 through 45 (e.g, respectively) as compared to the positive control GTP, for the wild-type Ras protein (panel A) and the single mutant N116G (SEQ ID No. 7). […] Thus, substitution of the N116 residue with a glycine appears to be a favorable mutation leading to expansion of the GTP binding pocket. […]
(§2) For example, purified mutant Ras (19A-116A) or wild type H-Ras protein (0.5 to 20 μg) was incubated in 40 μL of GTP exchange buffer (50 mM Tris-HCl pH 7.5, 50 mM NaCl, 5 mM EDTA, 1 mM DTT, 1 mg/mL BSA) containing either DMSO, GTP (100 μM) or a modulator (100 μM) for 30 min at 25° C. […] Filters were dried and the bound radioactivity was measured by scintillation counting (Beckman, #LS6500).
(§3) Cold GDP was used as a positive control. […] All of the measurements are in comparison to a background radioactivity count, such that the level of inhibition for a given compound was determined by the number of counts in comparison to the control. […]

GTPase mutant N116C = target: T3, GTPase mutant N116C (Homo sapiens, UniProt P01112, N116C); test: Ras inhibitor / guanine nucleotide exchange assay with 3H-GDP, mutant N116C; type: binding; settings: FIG. 17
T3 construct: made in house; host or cells: E. coli BL21-Gold, pGEX vector
Text: as §1
FIG. 15 provides a bar chart depicting the ability of various guanosine-based modulators to displace radiolabeled GDP from the GTPase mutant N116C.
FIGS. 16 and 17 graphically illustrates the inhibitory effect of the C-6 or N-7 substituted GMP-scaffold modulators on the double mutant N116G-T114C and the mutant N116C, respectively. […] The inhibitory effect was in the range of approximately 50-80%. […]
as §2, §3

[1] = target: T4, mutant enzyme (19A-116A) Ras binding to the Ras binding domain (RBD) of the Raf kinase (Homo sapiens, UniProt P01112, L19A/N116A); test: Effector binding assay: pull-down with Ras binding domain (RBD) of Raf kinase, western blot; type: biochemical; settings: FIG. 35
T4 construct: GST (N); made in house; host or cells: E. coli BL21-Gold, pGEX vector (Ras)
Protocol: The ability of the mutant enzyme (19A-116A) to bind to a known effector of H-Ras was confirmed. Using the Ras binding domain (RBD) of the Raf kinase, the ability of the mutant enzyme to undergo a conformational change upon GTP binding, and, thus, to bind the effector was determined. In brief, purified mutant or wild-type proteins (150 ng) were incubated in 1 mL of loading buffer (100 mM Tris-HCl pH 7.5, 2 mM EDTA, 1 mM DTT, 1 mg/mL BSA) in the presence of 10 mM of GDP, GTP, 7 d or both GTP and 7 d for 15 min at 25° C. for loading the protein with the appropriate nucleotides. Following loading, MgCl2 (20 mM) was added along with GST-RBD (1.2 mg), comprising Raf kinase amino acids 53-131, bound to glutathione sepharose beads. The resulting suspensions were incubated with rotation for 30 min at 4° C. The beads were then washed three times with 1 mL of washing buffer (50 mM Tris-HCl pH 7.5, 50 mM NaCl, 20 mM MgCl2, 1 mM DTT) to remove unbound H-Ras proteins. The beads were boiled in SDS loading buffer, and the samples were separated by electrophoresis. Following transfer, the PVDF membrane was probed with anti-H-Ras and the amount of H-Ras bound to the RBD glutathione sepharose beads was visualized using anti-rabbit HRP in conjunction with WestPico (Pierce).

mutant Rap1B enzyme = target: T5, mutant Rap1B enzyme (Homo sapiens, UniProt P61224, L19A/N116A); test: Selective binding to mutant Rap1B (alanine at positions 19 and 116); settings: FIG. 33B
T5 construct: made in house; host or cells: E. coli BL21-Gold, pGEX-4T
T5 sequence (P61224 1-184 L19A/N116A): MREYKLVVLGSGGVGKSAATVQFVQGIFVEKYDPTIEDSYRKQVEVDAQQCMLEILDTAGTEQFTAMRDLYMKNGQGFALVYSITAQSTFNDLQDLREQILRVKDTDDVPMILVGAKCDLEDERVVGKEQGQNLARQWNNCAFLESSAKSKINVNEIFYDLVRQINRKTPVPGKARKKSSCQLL
Text: (§4) To confirm the general applicability of the methods and compositions of the present invention in the context of GTPases other than H-Ras, alanine substitutions at amino acids corresponding to positions 19 and 116 of Ras were introduced into the Rap1B GTPase. As shown in the alignment of Table 1, the identical amino acid residues, i.e., leucine at position 19, and asparagine at position 116, are present in Rap1B.
(§5) The mutant Rap1B protein construct was made as described above with respect to the Ras mutant proteins. All mutant proteins were made in the pGEX-4T bacterial expression system using the Quickchange protocol […] according to the manufacturer's instructions. Mutant Rap1B cDNAs were transformed individually in BL21-Gold competent cells (Stratagene) according to the manufacturer's instructions. An overnight culture of BL21-Gold cells containing one of the GST-Rap1B plasmids described above was diluted 1:50 in Superbroth medium (Q-Biogene) supplemented with 50 mg/L carbenicillin. After it had grown to an OD=0.6, synthesis of the GST-Rap1B protein was induced by the addition of IPTG (50 mM) and by further incubation at 30° C. for 12 h. After centrifugation at 3,500 g for 15 min at 4° C., the cell pellet was frozen at −80° C. for 1 h. […] Protein concentration was determined by a Bradford assay and the protein purity was assessed by gel electrophoresis.

wild-type Rap1B enzyme = target: T6, wild-type Rap1B enzyme (Homo sapiens, UniProt P61224); test: Selective binding, wild-type Rap1B; settings: FIG. 33B
T6 construct: GST (N); made in house; host or cells: E. coli BL21-Gold, pGEX-4T (described for the mutant; inferred for the wild type)
T6 sequence (P61224 1-184): T5 sequence (P61224 1-184 L19A/N116A) with A19L, A116N
Text: as §4, §5

wild type H-Ras = target: T7, wild type H-Ras (Homo sapiens, UniProt P01112); test: Ras inhibitor / guanine nucleotide exchange assay with 3H-GDP, wild type; type: binding; settings: at a concentration of 100 μM
T7 construct: made in house; host or cells: E. coli BL21-Gold, pGEX vector
Text: as §1
The GTPase modulators of the present invention were screened against wild-type and/or mutant GTPases for their effectiveness as GTPase inhibitors. […]
as §2
Cold GDP was used as a positive control. […] All of the measurements are in comparison to a background radioactivity count, such that the level of inhibition for a given compound was determined by the number of counts in comparison to the control. Thus, a high radioactivity count is indicative of a high level of binding between the mutant GTPase and the radioactive GDP.

Compound | IC50 (mutant Ras (19A-116A)) | inhibition of the mutant GTPase (decrease in radiolabel remaining bound) (single mutant N116G Ras) | displacement of radioactive GDP from the mutant GTPase (mutant Ras (19A-116A)) | effector (Raf RBD) binding of the mutant enzyme [1] | binding to the mutant Rap1B enzyme (mutant Rap1B enzyme) | effect on the wild-type Rap1B enzyme (wild-type Rap1B enzyme) | other results
Nc1nc(=S)c2ncn([C@@H]3O[C@H](COP(=O)(O)OP(=O)(O)OP(=O)(O)O)[C@@H](O)[C@H]3O)c2[nH]1 [Compound 45, 6-S-mercaptoguanosine-5′-triphosphate] |  | significantly inhibit |  |  |  |  | 
C=CCOc1nc(N)nc2c1ncn2[C@@H]1O[C@H](COP(=O)(O)OP(=O)(O)OP(=O)(O)O)[C@@H](O)[C@H]1O [Compound 43, 6-O-allyl guanosine-5′-triphosphate] |  | significantly inhibit |  |  |  |  | 
6-S-mercaptoguanosine-5′-phosphate [Compound 82] |  |  |  |  |  |  | inhibitory effect on the N116C mutant (GTPase mutant N116C): 50-80%
(2-phenyl)ethyl-GTP [Compound 52] |  |  | displaced the radioactive GDP | prompts effector binding | bind tightly | negligably affecting | 

Now from value to compound, other results behind:

IC50 (mutant Ras (19A-116A)) | inhibition of the mutant GTPase (decrease in radiolabel remaining bound) (single mutant N116G Ras) | displacement of radioactive GDP from the mutant GTPase (mutant Ras (19A-116A)) | effector (Raf RBD) binding of the mutant enzyme [1] | binding to the mutant Rap1B enzyme (mutant Rap1B enzyme) | effect on the wild-type Rap1B enzyme (wild-type Rap1B enzyme) | Compound | other results
~1500 nM |  |  |  |  |  | Nc1nc2c(ncn2[C@@H]2O[C@H](COP(=O)(O)OP(=O)(O)O)[C@@H](O)[C@H]2O)c(=O)[nH]1 [GDP, reference compound] | 
300 nM |  | displaced the radioactive GDP | prevents effector binding | bind tightly | negligably affecting | Nc1nc2c(c(CCc3ccccc3)cn2[C@@H]2O[C@H](COP(=O)(O)OP(=O)(O)O)[C@@H](O)[C@H]2O)c(=O)[nH]1 [Compound 60, 7-deaza-7-(2″-phenyl)ethyl guanosine-5′-diphosphate] | potency relative to GDP at displacing GTP from the mutant GTPase protein (mutant Ras (19A-116A); ratio of IC50 values): 5 times; inhibition of wild-type H-Ras (wild type H-Ras): does not inhibit
